Measured values taken from EP0907364B1, “SUSTAINED RELEASE PHARMACEUTICAL COMPOSITIONS COMPRISING A DIBENZOTHIAZEPINE DERIVATIVE” (AstraZeneca AB, priority 1996, dated 1997).
In brackets after ≈: the same amount, converted by molar mass.

Assay: physchem
Settings: 20 °C, water, thermodynamic from solid

Compound: OCCOCCN1CCN(C2=Nc3ccccc3Sc3ccccc32)CC1 [11-[4-[2-(2-hydroxyethoxy)ethyl]-1-piperazinyl]dibenzo[b,f][1,4]-thiazepine]
- solubility thermodynamic: 3290 µg/mL (≈ 8.58 mM)
